Counter-ions that a name gives are not always drawn.
What follows are compounds tested on E. coli MG1655 (assay: High-throughput screening of FDA-approved drug library for antibiotic adjuvants (growth inhibition, OD600)). Details: library drug alone, LB medium, 96-well, 8 h static culture at 37°C, relative to PMBN (positive) and DMSO (negative) controls, %, table head prints no unit.
Format: cell-based, Escherichia coli

| SMILES | Growth inhibition, Compound [%] |
| --- | --- |
| C[C@@H](O)[C@H]1C(=O)N2C(C(=O)O)=C(SCCN=CN)C[C@H]12 [Imipenem monohydrate] | 109 |
| [O-][n+]1ccccc1SSc1cccc[n+]1[O-] [Dipyrithione] | 104 |
| CC1(C)S[C@@H]2[C@H](NC(=O)[C@H](NC(=O)N3CCNC3=O)c3ccccc3)C(=O)N2[C@H]1C(=O)O [Azlocillin sodium] | 94 |
| CN(C)CCn1nnnc1SCC1=C(C(=O)O)N2C(=O)[C@@H](NC(=O)Cc3csc(N)n3)[C@H]2SC1 [Cefotiam hydrochloride] | 105 |
| CO[C@@]1(NC(=O)Cc2cccs2)C(=O)N2C(C(=O)O)=C(COC(N)=O)CS[C@@H]21 [Cefoxitin sodium] | 78 |
| CN(C)[C@@H]1C(O)=C(C(N)=O)C(=O)[C@@]2(O)C(O)=C3C(=O)c4c(O)ccc(Cl)c4[C@@H](O)[C@H]3C[C@@H]12 [Demeclocycline hydrochloride] | 99 |
| CCCCCCCCc1ccc(CCC(N)(CO)CO)cc1 [Fingolimod hydrochloride] | 87 |
| CC[C@H]1OC(=O)[C@H](C)[C@@H](O[C@H]2C[C@@](C)(OC)[C@@H](O)[C@H](C)O2)[C@H](C)[C@@H](O[C@@H]2O[C@H](C)C[C@H](N(C)C)[C@H]2O)[C@](C)(O)C[C@@H](C)CN(C)[C@H](C)[C@@H](O)[C@]1(C)O [Azithromycin] | 109 |
| CO[C@H]1/C=C/O[C@@]2(C)Oc3c(C)c(O)c4c(O)c(c(/C=N/N5CCN(C6CCCC6)CC5)c(O)c4c3C2=O)NC(=O)/C(C)=C\C=C\[C@H](C)[C@H](O)[C@@H](C)[C@@H](O)[C@@H](C)[C@H](OC(C)=O)[C@@H]1C [Rifapentine] | 99 |
| O=c1[nH]cnc2c1ncn2[C@H]1CC[C@@H](CO)O1 [Didanosine] | 41 |
| CS(=O)(=O)c1ccc([C@@H](O)[C@@H](CF)NC(=O)C(Cl)Cl)cc1 [Florfenicol] | 116 |
| NCc1ccccc1CC(=O)N[C@@H]1C(=O)N2C(C(=O)O)=C(CSc3nnnn3CC(=O)O)CS[C@H]12 [Ceforanide] | 94 |
| CN[C@@H]1[C@@H](O)[C@@H](O[C@@H]2[C@@H](O)[C@H](O[C@H]3O[C@H]([C@@H](C)NC)CC[C@H]3N)[C@@H](N)C[C@H]2N)OC[C@]1(C)O.O=S(=O)(O)O [Gentamycin sulfate] | 110 |
| CN1C[C@@H]2C[C@H]1CN2c1cc2c(cc1F)c(=O)c(C(=O)O)cn2C1CC1.CS(=O)(=O)O [Danofloxacin mesylate] | 100 |
| CO/N=C(\C(=O)N[C@@H]1C(=O)N2C(C(=O)O)=C(CSc3nnnn3C)CS[C@H]12)c1csc(N)n1.CO/N=C(\C(=O)N[C@@H]1C(=O)N2C(C(=O)O)=C(CSc3nnnn3C)CS[C@H]12)c1csc(N)n1.Cl [Cefmenoxime hydrochloride] | 96 |
| Cn1nnc(-c2ccc(-c3ccc(N4C[C@H](CO)OC4=O)cc3F)cn2)n1 [Torezolid] | 61 |
| CNC[C@H](O)[C@@H](O)[C@H](O)[C@H](O)CO.Nc1nc(-n2cc(C(=O)O)c(=O)c3cc(F)c(N4CC(O)C4)c(Cl)c32)c(F)cc1F [Delafloxacin meglumine] | 103 |
| CO[C@@]1(NC(=O)CSCC#N)C(=O)N2C(C(=O)O)=C(CSc3nnnn3C)CS[C@@H]21 [Cefmetazole sodium] | 96 |
| CO/N=C1\CN(c2nc3c(cc2F)c(=O)c(C(=O)O)cn3C2CC2)CC1CN (centres unmarked) [Gemifloxacin mesylate] | 105 |

| SMILES | Growth inhibition, Compound [%] |
| --- | --- |
| COCC1=C(C(=O)O)N2C(=O)[C@@H](NC(=O)/C(=N\OC)c3csc(N)n3)[C@H]2SC1 [Cefpodoxime (free acid)] | 108 |
| CCn1cc(C(=O)O)c(=O)c2cc(F)c(N3CCNC(C)C3)c(F)c21 (centres unmarked) [Lomefloxacin] | 99 |
| CC1(C)S[C@@H]2[C@H](NC(=O)[C@H](N)c3ccccc3)C(=O)N2[C@H]1C(=O)O [Ampicillin sodium] | 91 |
| CC1(C)S[C@@H]2[C@H](NC(=O)C(c3ccccc3)S(=O)(=O)O)C(=O)N2[C@H]1C(=O)O.[Na].[Na] (some centres unmarked) [Sulbenicillin Sodium] | 90 |
| C[C@@H]1O[C@@H]1P(=O)(O)O.NC(CO)(CO)CO [Fosfomycin Tromethamine] | 104 |
| CC1(C)S[C@@H]2[C@H](NC(=O)[C@H](N)c3ccc(O)cc3)C(=O)N2[C@H]1C(=O)[O-].[Na+] [Amoxicillin Sodium] | 98 |
| Cc1cn([C@H]2C[C@H](F)[C@@H](CO)O2)c(=O)[nH]c1=O [3'-Deoxy-3'-fluorothymidine] | 70 |
| CCN1CCN(C(=O)N[C@@H](C(=O)N[C@@H]2C(=O)N3[C@@H]2SC(C)(C)[C@@H]3C(=O)O)c2ccccc2)C(=O)C1=O [Piperacillin sodium salt] | 88 |
| CCCCCCCCc1ccc(CCC(N)(CO)CO)cc1 [Fingolimod] | 90 |
| NCC[C@H](O)C(=O)N[C@@H]1C[C@H](N)[C@@H](O[C@H]2O[C@H](CN)[C@@H](O)[C@H](O)[C@H]2O)[C@H](O)[C@H]1O[C@H]1O[C@H](CO)[C@@H](O)[C@H](N)[C@H]1O [Amikacin] | 105 |
| CCN(CC)C(=S)SSC(=S)N(CC)CC [Disulfiram] | 78 |
| O=C(N[C@H](CO)[C@H](O)c1ccc([N+](=O)[O-])cc1)C(Cl)Cl [Chloramphenicol] | 109 |
| O=C1CN(/N=C/c2ccc([N+](=O)[O-])o2)C(=O)N1 [Nitrofurantoin] | 98 |
| [H]/N=C(\N/C(=N/[H])NCCCCCCNC(=N)NC(=N)Nc1ccc(Cl)cc1)Nc1ccc(Cl)cc1 [Chlorhexidine] | 101 |
| C=CC1=C(C(=O)O)N2C(=O)[C@@H](NC(=O)/C(=N\OCC(=O)O)c3csc(N)n3)[C@H]2SC1 [Cefixime] | 109 |
| Cl.O=C1OC(CN2CCOCC2)CN1/N=C/c1ccc([N+](=O)[O-])o1 (centres unmarked) [Furaltadone hydrochloride] | 115 |
| C/C(=C\C(=O)OCCCCCCCCC(=O)O)C[C@@H]1OC[C@H](C[C@@H]2O[C@H]2[C@@H](C)[C@H](C)O)[C@@H](O)[C@H]1O [Mupirocin] | 83 |
| Cc1c(N)nc([C@H](CC(N)=O)NC[C@H](N)C(N)=O)nc1C(=O)N[C@H](C(=O)N[C@H](C)[C@@H](O)[C@H](C)C(=O)N[C@H](C(=O)NCCc1nc(-c2nc(C(=O)NCCC[S+](C)C)cs2)cs1)[C@@H](C)O)[C@@H](O[C@@H]1O[C@@H](CO)[C@@H](O)[C@H](O)[C@@H]1O[C@H]1O[C@H](CO)[C@@H](O)[C@H](OC(N)=O)[C@@H]1O)c1cnc[nH]1.O=S(=O)([O-])O [Bleomycin Sulfate] | 110 |
| CSCC1CN(/N=C/c2ccc([N+](=O)[O-])o2)C(=O)O1 (centres unmarked) [Nifuratel] | 108 |

| SMILES | Growth inhibition, Compound [%] |
| --- | --- |
| CC1COc2c(N3CCN(C)CC3)c(F)cc3c(=O)c(C(=O)O)cn1c23 (centres unmarked) [Ofloxacin] | 107 |
| CC(=O)OCC1=C(C(=O)O)N2C(=O)[C@@H](NC(=O)Cc3cccs3)[C@H]2SC1 [Cephalothin sodium] | 79 |
| C[C@H]1COc2c(N3CCN(C)CC3)c(F)cc3c(=O)c(C(=O)O)cn1c23 [Levofloxacin] | 102 |
| CN(C)[C@@H]1C(O)=C(C(N)=O)C(=O)[C@@]2(O)C(O)=C3C(=O)c4c(O)cccc4[C@@](C)(O)[C@H]3[C@H](O)[C@@H]12 [Oxytetracycline Dihydrate] | 101 |
| NC[C@@H]1O[C@H](O[C@H]2[C@@H](O)[C@H](O[C@@H]3[C@@H](O)[C@H](N)C[C@H](N)[C@H]3O[C@H]3O[C@H](CO)[C@@H](O)[C@H](O)[C@H]3N)O[C@@H]2CO)[C@H](N)[C@@H](O)[C@@H]1O [Paromomycin Sulfate] | 108 |
| O=[N+]([O-])c1ccc(O)c2ncccc12 [Nitroxoline] | 105 |
| CC[C@H]1OC(=O)[C@H](C)[C@@H](O[C@H]2C[C@@](C)(OC)[C@@H](O)[C@H](C)O2)[C@H](C)[C@@H](O[C@@H]2O[C@H](C)C[C@H](N(C)C)[C@H]2O)[C@](C)(O)C[C@@H](C)CN[C@H](C)[C@@H](O)[C@]1(C)O [Azathramycin] | 114 |
| CN1CCN(c2c(F)cc3c(=O)c(C(=O)O)cn4c3c2OCN4C)CC1 [Marbofloxacin] | 108 |
| NC[C@H]1O[C@H](O[C@H]2[C@H](O)[C@@H](O[C@H]3O[C@H](CO)[C@@H](O)[C@H](N)[C@H]3O)[C@H](N)C[C@@H]2N)[C@H](N)C[C@@H]1O [Tobramycin] | 107 |
| C[C@@H](O)[C@H]1C(=O)N2C(C(=O)O)=C(S[C@@H]3CN[C@H](CNS(N)(=O)=O)C3)[C@H](C)[C@H]12.O [Doripenem Hydrate] | 77 |
| Nc1ccc2cc3ccc(N)cc3nc2c1 [Proflavine Hemisulfate] | 54 |
| CN[C@@H]1[C@H](O)[C@H](NC)[C@H]2O[C@@]3(O)C(=O)C[C@@H](C)O[C@H]3O[C@@H]2[C@H]1O.Cl.Cl.O.O.O.O.O [Spectinomycin dihydrochloride pentahydrate] | 96 |
| Cc1cc(C2CCCCC2)n(O)c(=O)c1 [Ciclopirox] | 70 |
| CNC1CCCN(c2c(F)cc3c(=O)c(C(=O)O)cn(C4CC4)c3c2OC)C1 (centres unmarked) [Balofloxacin] | 108 |
| COc1c(N2CCNC(C)C2)c(F)cc2c(=O)c(C(=O)O)cn(C3CC3)c12.Cl (centres unmarked) [Gatifloxacin hydrochloride] | 104 |
| CCn1nc(C(=O)O)c(=O)c2cc3c(cc21)OCO3 [Cinoxacin] | 88 |
| CC[C@H]1OC(=O)[C@H](C)[C@@H](O[C@H]2C[C@@](C)(OC)[C@@H](O)[C@H](C)O2)[C@H](C)[C@@H](O[C@@H]2O[C@H](C)C[C@H](N(C)C)[C@H]2O)[C@](C)(OC)C[C@@H](C)C(=O)[C@H](C)[C@@H](O)[C@]1(C)O [Clarithromycin] | 50 |
| CS(=O)(=O)O.C[C@H]1COc2c(C3(N)CC3)c(F)cc3c(=O)c(C(=O)O)cn1c23 [Pazufloxacin Mesylate] | 109 |

— PMC11358092, “Caspofungin enhances the potency of rifampin against Gram-negative bacteria” (Frontiers in Microbiology, 2024)
